Results: US12558345B2, “CHK1/2 inhibitors for use in the treatment of neuroblastomas and/or soft tissue sarcomas” (Eli Lilly and Company, priority 2015, dated 2026)
Where two headings read alike, the source gives them in different places.

How the values were obtained:
[1] = tested on: SJCRH-30 RMS xenograft; assay type: in vivo; details: SJCRH-30, RMS
Protocol: Expand human RMS cancer cells SJCRH-30 (St. Jude Children's Research Hospital) in culture, harvest, and inject 5×10^6 cells in 200 μL of HBSS subcutaneously into the right rear flank of female athymic nude mice (20-22 g, Harlan Laboratories).
For all studies, measure tumor growth and body weight twice per week beginning on the seventh day after implantation. When tumor size reaches 150-300 mm^3, randomize animals and group into groups of 4-7 animals. Prepare test compound in an appropriate vehicle (e.g. vehicle can be 20% Captisol® in sterile water) and administer subcutaneously for three consecutive days followed by a four day dosing holiday and repeat for a minimum of four weeks. Tumor response is determined by tumor volume measurement performed twice per week during the course of treatment.
The vehicle used in this study is 20% Captisol® in sterile water and is administered subcutaneously for three consecutive days followed by a four day dosing holiday and repeated for a minimum of four weeks. […] The treatment period lasts 4 weeks.

[2] = tested on: HT-29 cells; test: ECtfs (Two-Fold Sensitization) Assay; assay type: cell-based; details: gemcitabine alone
Protocol: An inhibitor of CHK1 can potentiate the anti-proliferative activity of gemcitabine (or other cytotoxics) through abrogation of the intra-S phase checkpoint, resulting in sustained and increased DNA damage. The capacity for continued tumor cell proliferation after DNA damage can be analyzed by determining the ability of cells to replicate their DNA. […] In this assay, cells are treated with gemcitabine, and then with the compound of Example 2. Following a recovery period, cells are assayed for the ability to incorporate radioactive thymidine into DNA during S phase. The ECtfs parameter is a measure of the concentration of a CHK1 inhibitor necessary to reduce by half the GI90 concentration of gemcitabine, measured in this assay in the absence of CHK1 inhibition. HT-29 cells (obtained from ATCC), are grown in RPMI 1640 plus (Gibco™) 10% (v/v) heat inactivated FBS. These cells are plated at 1.3×10^3 per well on Corning Costar 96-well tissue culture plates. After plating the cells, the tissue culture plates are held at room temperature for 45 minutes, before returning to 37° C. Plates are incubated for 24 hours prior to gemcitabine addition. Before gemcitabine addition, medium is removed from all wells and replaced with 150 μL per well of fresh RPMI medium. Gemcitabine stocks at 10 mM are prepared in PBS. Gemcitabine dilutions were prepared at 4× concentrations in RPMI medium and added to wells at 50 μL per well. The highest final concentration of gemcitabine used is 80 μM and dilutions proceed by four-fold steps. Two hours later, gemcitabine-containing medium is removed from the wells and replaced with 150 μL per well of fresh RPMI medium. […] The volume of addition is 50 μL. Compound dilutions proceed by two-fold steps, starting at 5000 nM. […] Twenty μL of this solution is added to each well, yielding 1 µCi/well of ^3H-thymidine. Cells are labeled for twenty-two hours. The medium containing ^3H-thymidine is thoroughly removed from the wells. The plates are then frozen at −20° C., for several hours. To harvest the DNA containing incorporated ^3H-thymidine, plates are thawed for several minutes, and then 120 μL per well of 0.1 N NaOH is added to each well. Each plate is then incubated at 37° C., with slow mixing on a rotator, for 10 minutes. DNA is harvested with a Filtermate 196 Harvester (PerkinElmer) and collected on 96-well Unifilter GF/C plates (PerkinElmer #6005174). The wells of the tissue culture plate on which cells had been labeled are washed with water (5×). The Unifilter plate membranes are washed with an additional 4.5 mL per well (3×1.0 mL and finally a 1.5 mL wash). The Unifi is sealed with a Backseal adhesive sheet (PerkinElmer), and the 50 μL/well of MicroScint-20 (Perkin Elmer) is added. Each plate is then sealed with a Topseal clear adhesive sheet (PerkinElmer). Plates are counted on a Topcount scintillation counter (PerkinElmer), at 1 minute per well. ^3H-thymidine counts per minute (cpm) are exported into Prism (GraphPad) for analysis and plotting. […] For plotting the data in Prism, the gemcitabine concentrations are transformed to log values, and dose-response curves are fit by non-linear regression. Neither top nor bottom fits are constrained. The ECtfs value is 0.3 nM.

## O=P1(NCCCl)OCCCN1CCCl (centres unmarked) [ifosphamide, reference compound]
[1]; comparator day 46
  % T/C: 34%

## Nc1ccn([C@@H]2O[C@H](CO)[C@@H](O)C2(F)F)c(=O)n1 [gemcitabine, reference compound]
[2]; HT29 cells
  percentage of proliferation inhibition: 52%
[2]; Homo sapiens, HT-29, HT29 colon carcinoma cells
  EC50: 0.037 µM

## COc1cccc2c1C(=O)c1c(O)c3c(c(O)c1C2=O)C[C@@](O)(C(=O)CO)C[C@@H]3O[C@H]1C[C@H](N)[C@H](O)[C@H](C)O1 [Doxorubicin, reference compound]
[1]; comparator day 56
  % T/C: 16%

## CCc1c2c(nc3ccc(OC(=O)N4CCC(N5CCCCC5)CC4)cc13)-c1cc3c(c(=O)n1C2)COC(=O)[C@]3(O)CC [irinotecan, reference compound]
[1]; comparator day 46
  % T/C: 12%
